Among the data in patent publication US20110257168A1, “DERIVATIVES OF OXABISPIDINE AS NEURONAL NICOTINIC ACETYLCHOLINE RECEPTOR LIGANDS” (Targacept, Inc., priority 2008, published 2011) are Ki values, retold here.

For one experiment, the target named is T1, Rat α4β2 (Rattus norvegicus, UniProt P09483+P12390).
T1 construct: Preparation of membranes from rat tissues; Rat cortices were obtained from Analytical Biological Services; tissue Analytical Biological Services, Incorporated (ABS, Wilmington, Del.); host or cells: rat cortex membranes (female Sprague-Dawley)
In words: Competition binding to rat α4β2 receptors in membrane preparations. The protocol: (§1) Preparation of membranes from rat tissues. Rat cortices were obtained from Analytical Biological Services, Incorporated (ABS, Wilmington, Del.). Tissues were dissected from female Sprague-Dawley rats, frozen and shipped on dry ice. Tissues were stored at −20° C. until needed for membrane preparation. Cortices from 10 rats were pooled and homogenized by Polytron (Kinematica GmbH, Switzerland) in 10 volumes (weight:volume) of ice-cold preparative buffer (KCl, 11 mM; KH2PO4, 6 mM; NaCl 137 mM; Na2HPO4 8 mM; HEPES (free acid), 20 mM; iodoacetamide, 5 mM; EDTA, 1.5 mM; 0.1 mM PMSF pH 7.4). The resulting homogenate was centrifuged at 40,000 g for 20 minutes at 4° C. and the resulting pellet was resuspended in 20 volumes of ice-cold water. After 60-minute incubation at 4° C., a new pellet was collected by centrifugation at 40,000 g for 20 minutes at 4° C. The final pellet was resuspended in preparative buffer and stored at −20° C. On the day of the assay, tissue was thawed, centrifuged at 40,000 g for 20 minutes and then resuspended in PBS (Dulbecco's Phosphate Buffered Saline, Life Technologies, pH 7.4) to a final concentration of 2-3 mg protein/mL. Protein concentrations were determined using the Pierce BCA Protein Assay kit (Pierce Biotechnology, Rockford, Ill.), with bovine serum albumin as the standard. Preparation of membranes from clonal cell lines. Cells were harvested in ice-cold PBS, pH 7.4, then homogenized with a polytron (Brinkmann Instruments, Westbury, N.Y.). Homogenates were centrifuged at 40,000 g for 20 minutes (4° C.). The pellet was resuspended in PBS and protein concentration determined using the Pierce BCA Protein Assay kit (Pierce Biotechnology, Rockford, Ill.).
(§2) Competition binding to receptors in membrane preparations. Binding to nicotinic receptors was assayed on membranes using standard methods adapted from published procedures (Lippiello and Fernandes, 1986; Davies et al., 1999). In brief, membranes were reconstituted from frozen stocks (approximately 0.2 mg protein) and incubated for 2 h on ice in […] assay buffer (PBS) in the presence of competitor compound (0.001 nM to […]) and radioligand. [^3H]-nicotine (L-(−)-[N-methyl-3H]-nicotine, 69.5 Ci/mmol, Perkin-Elmer Life Sciences) was used for human α4β2 binding studies. [^3H]-epibatidine (52 Ci/mmol, Perkin-Elmer Life Sciences) was used for binding studies at the other receptor subtypes. Incubation was terminated by rapid filtration on a multimanifold tissue harvester (Brandel, Gaithersburg, Md.) using GF/B filters presoaked in 0.33% polyethyleneimine (w/v) to reduce non-specific binding. Filters were washed 3 times and the radioactivity retained was determined by liquid scintillation counting.
Binding data analysis. Binding data were expressed as percent total control binding. Replicates for each point were averaged and plotted against the log of drug concentration. The IC50 (concentration of the compound that produces 50% inhibition of binding) was determined by least squares non-linear regression using GraphPad Prism software (GraphPAD, San Diego, Calif.). Ki was calculated using the Cheng-Prusoff equation (Cheng and Prusoff, 1973).

A further experiment addresses human α4β2 (Homo sapiens, UniProt P17787+P43681). Nature of the experiment: Competition binding to human α4β2 receptors in membrane preparations. The protocol:
(§3) SH-EP1/human α4β2 (Eaton et al., 2003), SH-EP1/human α4β4 (Gentry et al., 2003), SH-EP1/α6β3β4α5 (Grinevich et al., 2005), TE671/RD and SH-SY5Y cell lines (obtained from Dr. Ron Lukas, Barrow Neurological Institute) were maintained in proliferative growth phase in Dulbecco's modified Eagle's medium (Gibco/BRL) with 10% horse serum (Gibco BRL), 5% fetal bovine serum (HyClone, Logan Utah), 1 mM sodium pyruvate, 4 mM L-glutamine. For maintenance of stable transfectants, the α4β2 and α4β4 cell media was supplemented with 0.25 mg/mL zeocin and 0.13 mg/mL hygromycin B. Selection was maintained for the α6β3β4α5 cells with 0.25 mg/mL of zeocin, 0.13 mg/mL of hygromycin B, 0.4 mg/mL of geneticin, and 0.2 mg/mL of blasticidin. HEK/human α7/RIC3 cells (obtained from J. Lindstrom, U. Pennsylvania) were maintained in proliferative growth phase in Dulbecco's modified Eagle's medium (Gibco/BRL) with 10% fetal bovine serum (HyClone, Logan Utah), 1 mM sodium pyruvate, 4 mM L-glutamine, 0.4 mg/mL geneticin; 0.2 mg/ml hygromycin B.
as §1, §2
(§4) Binding data analysis. Binding data were expressed as percent total control binding. Replicates for each point were averaged and plotted against the log of drug concentration. […]

The target in a further experiment is T2, Human α7 (Homo sapiens, UniProt P36544).
T2 construct: host or cells: HEK cells co-expressing RIC3
Nature of the experiment: Competition binding to human α7 receptors in membrane preparations. As to conditions: membranes, [3H]-epibatidine competition; Ki by Cheng-Prusoff; read-out: Human α7 Ki. On the procedure:
as §3, §1, §2, §4

Setting [1] is: membranes, [3H]-epibatidine competition, Ki by Cheng-Prusoff, read-out: Rat α4β2 Ki.
The mark [2] stands for this setting: membranes, [3H]-nicotine competition, Ki by Cheng-Prusoff, read-out: human α4β2 Ki.

Structures are written as SMILES. Like-named read-outs stand apart in the source and are kept apart here.

A word on the Ki: it is a measure of affinity in units of concentration, obtained from inhibition or displacement. Consider `Cc1ccc(N2CC3CNCC(C2)O3)cn1` [3-(6-methylpyridin-3-yl)-9-oxa-3,7-diazabicydo[3.3.1]nonane], for which the Ki at Rat α4β2 (setting [1]) was 30 nM; at human α4β2, 4.9 nM; on Human α7, 0.6 µM.
On to `c1cc2ncc(N3CC4CNCC(C3)O4)cc2o1` [3-(furo[3,2-b]pyridin-6-yl)-9-oxa-3,7-diazabicyclo[3.3.1]nonane], for which the Ki on Rat α4β2 was found to be 91 nM; at human α4β2 (setting [2]), 50 nM; at Human α7 it was 5.7 µM.
For the compound `COc1cc(N2CC3CNCC(C2)O3)cnc1Cl` [3-(5-methoxy-6-chloropyridin-3-yl)-9-oxa-3,7-diazabicyclo[3.3.1]nonane], the inhibition constant Ki on Rat α4β2 turned out to be 1 nM; at human α4β2 (setting [2]), 0.4 nM.
Turning to `CN1CC2CN(c3cnc(Br)nc3)CC(C1)O2` [3-(2-bromopyrimidin-5-yl)-7-methyl-9-oxa-3,7-diazabicyclo[3.3.1]nonane], the Ki on human α4β2 (setting [2]) was 2000 nM.
Turning to `CN1CC2CN(c3cnc(Cl)c(Cl)c3)CC(C1)O2` [3-methyl-7-(5,6-dichloropyridin-3-yl)-9-oxa-3,7-diazabicyclo[3.3.1]nonane], the inhibition constant Ki at Rat α4β2 stood at 33 nM; on human α4β2 (setting [2]) it was 24 nM.
As for `CN1CC2CN(c3ccc(C(F)(F)F)nc3)CC(C1)O2` [3-(6-trifluoromethyl-pyridin-3-yl)-7-methyl-9-oxa-3,7-diazabicyclo[3.3.1]nonane], on human α4β2 (setting [2]), the Ki is 1000 nM.
Take `c1ccc(N2CC3CNCC(C2)O3)nc1` [3-(pyridin-2-yl)-9-oxa-3,7-diazabicyclo[3.3.1]nonane]: the Ki was 350 nM at Rat α4β2 (setting [1]) and 100 nM at human α4β2 (setting [2]).
Take `CN1CC2CN(c3cc(F)cc(F)c3)CC(C1)O2` [3-(3,5-difluorophenyl)-7-methyl-9-oxa-3,7-diazabicyclo[3.3.1]nonane]: the figures for the Ki on Rat α4β2 (setting [1]) and on human α4β2 (setting [2]) were 510 nM and 86 nM, respectively.
On to `FC1(F)Oc2ccc(N3CC4CNCC(C3)O4)cc2O1` [3-(2,2-difluorobenzo[d][1,3]dioxol-5-yl)-9-oxa-3,7-diazabicyclo[3.3.1]nonane], for which the values for the Ki on human α4β2 (setting [2]) and on Human α7 were 700 nM and 90 µM, respectively.
With `CN1CC2CN(c3ccc(Cl)nc3)CC(C1)O2` [3-(6-chloropyridin-3-yl)-7-methyl-9-oxa-3,7-diazabicyclo[3.3.1]nonane], the Ki at Rat α4β2 (setting [1]) was determined as 1800 nM; at human α4β2 (setting [2]) it was 120 nM.
Consider `CN1CC2CN(c3cncnc3)CC(C1)O2` [3-(pyrimidin-5-yl)-7-methyl-9-oxa-3,7-diazabicyclo[3.3.1]nonane], for which the Ki at human α4β2 (setting [2]) was found to be 270 nM.
Same read-out and setting: then `Clc1ccncc1N1CC2CNCC(C1)O2` [3-(4-chloropyridin-3-yl)-9-oxa-3,7-diazabicydo[3.3.1]nonane], with 250 nM.
In the case of `Cc1ccc(N2CC3CN(C)CC(C2)O3)cn1` [3-(6-methylpyridin-3-yl)-7-methyl-9-oxa-3,7-diazabicyclo[3.3.1]nonane], the Ki on Rat α4β2 (setting [1]) came to 1700 nM; at human α4β2 (setting [2]) it was 150 nM.
Take `CN1CC2CN(c3cncc(C#N)c3)CC(C1)O2` [3-(5-cyanopyridin-3-yl)-7-methyl-9-oxa-3,7-diazabicyclo[3.3.1]nonane]: on human α4β2 (setting [2]), the Ki came out at 260 nM.
Take `CN1CC2CN(c3ccc(Cl)nn3)CC(C1)O2` [3-(6-chloropyridazin-3-yl)-7-methyl-9-oxa-3,7-diazabicyclo[3.3.1]nonane]: the Ki at human α4β2 (setting [2]) is 29000 nM.
For the compound `CN1CC2CN(c3cncc(Oc4ccc(Cl)c(Cl)c4)c3)CC(C1)O2` [3-(5-(3,4-dichlorophenoxy)pyridin-3-yl)-7-methyl-9-oxa-3,7-diazabicyclo[3.3.1]nonane], the Ki at Rat α4β2 (setting [1]) is 400 nM; on human α4β2 (setting [2]), 62 nM.
Take `CN1CC2CN(c3cncc(Cl)c3)CC(C1)O2` [3-(5-chloropyridin-3-yl)-7-methyl-9-oxa-3,7-diazabicyclo[3.3.1]nonane]: the figures for the Ki on Rat α4β2 (setting [1]) and at human α4β2 (setting [2]) were 1600 nM and 77 nM, respectively.
Turning to `CN(C)c1ccc(N2CC3CNCC(C2)O3)cn1` [3-(6-dimethylaminopyridin-3-yl)-9-oxa-3,7-diazabicyclo[3.3.1]nonane], at human α4β2 (setting [2]), the Ki worked out at 1200 nM.
As for `COc1ccncc1N1CC2CNCC(C1)O2` [3-(4-methoxypyridin-3-yl)-9-oxa-3,7-diazabicyclo[3.3.1]nonane], the figures for the Ki on Rat α4β2 (setting [1]) and on human α4β2 (setting [2]) were 580 nM and 120 nM, respectively.
`CN1CC2CN(c3cccc(Cl)c3Cl)CC(C1)O2`: the Ki on human α4β2 (setting [2]) was found to be 5200 nM.
`Fc1cc(F)cc(N2CC3CNCC(C2)O3)c1` [3-(3,5-difluorophenyl)-9-oxa-3,7-diazabicyclo[3.3.1]nonane]: the Ki amounted to 97 nM at Rat α4β2 and 27 nM at human α4β2 (setting [2]).
As for `CN1CC2CN(c3ccc(F)nc3)CC(C1)O2` [3-(6-fluoropyridin-3-yl)-7-methyl-9-oxa-3,7-diazabicyclo[3.3.1]nonane], the Ki worked out at 1100 nM at Rat α4β2 (setting [1]) and 140 nM on human α4β2 (setting [2]).
Consider `COc1ccc(N2CC3CNCC(C2)O3)cn1` [3-(6-methoxypyridin-3-yl)-9-oxa-3,7-diazabicyclo[3.3.1]nonane], for which, at human α4β2 (setting [2]), the Ki turned out to be 200 nM.
Take `Fc1cccc(N2CC3CNCC(C2)O3)c1F` [3-(2,3-difluorophenyl)-9-oxa-3,7-diazabicyclo[3.3.1]nonane]: the Ki on human α4β2 (setting [2]) worked out at 260 nM.
Same read-out and setting: in the case of `c1ccc(-c2ccc(N3CC4CNCC(C3)O4)nn2)cc1` [3-(6-phenylpyridazin-3-yl)-9-oxa-3,7-diazabicyclo[3.3.1]nonane] it was 380 nM.
Turning to `CN1CC2CN(c3cnccc3Cl)CC(C1)O2` [3-(4-chloropyridin-3-yl)-7-methyl-9-oxa-3,7-diazabicyclo[3.3.1]nonane], the inhibition constant Ki on human α4β2 (setting [2]) was found to be 180 nM.
With `[O-][n+]1cc(F)cc(N2CC3CNCC(C2)O3)c1` [3-(5-fluoro-pyridine-1-oxide-3-yl)-9-oxa-3,7-diazabicyclo[3.3.1]nonane], the Ki at human α4β2 (setting [2]) was determined as 590 nM; on Human α7, 54 µM.
As to `COc1cccc(N2CC3CN(C)CC(C2)O3)c1` [3-(3-methoxyphenyl)-7-methyl-9-oxa-3,7-diazabicyclo[3.3.1]nonane], the Ki on human α4β2 (setting [2]) was found to be 1600 nM.
The same measure, in the same setting: then `N#Cc1ccncc1N1CC2CNCC(C1)O2` [3-(4-cyanopyridin-3-yl)-9-oxa-3,7-diazabicyclo[3.3.1]nonane], with 860 nM.
As to `Clc1cccc(N2CC3CNCC(C2)O3)c1Cl` [3-(2,3-dichlorophenyl)-9-oxa-3,7-diazabicyclo[3.3.1]nonane], on human α4β2 (setting [2]), the Ki was 9600 nM.
Turning to `Brc1cncc(N2CC3CNCC(C2)O3)c1` [3-(5-bromopyridin-3-yl)-9-oxa-3,7-diazabicydo[3.3.1]nonane], the Ki on Rat α4β2 was determined as 2.7 nM; on human α4β2 (setting [2]), 2.1 nM.
Regarding `CN1CC2CN(c3cncc(Oc4ccccc4Cl)c3)CC(C1)O2` [3-(5-(2-chlorophenoxy)pyridin-3-yl)-7-methyl-9-oxa-3,7-diazabicyclo[3.3.1]nonane], the Ki on Rat α4β2 (setting [1]) turned out to be 1200 nM; at human α4β2 (setting [2]), 84 nM.
